Experimental data as given in US20070128217A1 (priority 2003, published 2007).

Assays:
[1] = tested on: control sera (pooled serum of ten healthy LUMC hospital workers; commercial negative donor pooled serum from the Dutch bloodbank); type: binding, human; set-up: Binding of Control serum LUMC to linear peptides / Binding of Control serum Blood-bank to linear peptides / Binding of Control serum LUMC to looped peptides / Binding of Control Serum Blood-Bank to Looped peptides / Binding of Control serum LUMC to linear peptides of the protein M of SARS-CoV Urbani / Binding of Control serum Blood-bank to linear peptides of the protein M of SARS-CoV Urbani / Binding of Control serum LUMC to looped peptides of the protein M of SARS-CoV Urbani / Binding of Control Serum Blood-Bank to Looped peptides of the protein M of SARS-CoV Urbani: unit not given here
[2] = tested on: recombinant human anti-SARS-CoV antibody 03-018; type: binding; set-up: Binding of antibody 03-018 to linear peptides of the N protein of SARS-CoV Urbani / Binding of antibody 03-018 to looped/cyclic peptides of the N protein of SARS-CoV Urbani: unit not given here
[3] = tested on: antibodies in sera from SARS patients (sera 1a, 1b, 2, 6, 37, 62, London, SARS-yellow, SARS-green); type: binding, human; set-up: Binding of serum 6 to linear peptides of protein X1 of SARS-CoV Urbani / Binding of serum 37 to linear peptides of protein X1 of SARS-CoV Urbani / Binding of serum 6 to looped/cyclic peptide (PEPSCAN-ELISA) / Binding of serum 37 to looped/cyclic peptide (PEPSCAN-ELISA) / Binding of serum 37 to looped/cyclic peptides of protein X1 of SARS-CoV Urbani / Binding of serum 6 to linear peptides of protein X2 / Binding of serum 37 to linear peptides of protein X2 / Binding of serum 37 to looped/cyclic peptides of protein X2 of SARS-CoV Urbani / Binding of serum 6 to linear peptides of protein M of SARS-CoV Urbani / Binding of serum 37 to linear peptides of protein M of SARS-CoV Urbani / Binding of serum 6 to looped/cyclic peptides of protein M of SARS-CoV Urbani / Binding of serum 37 to looped/cyclic peptides of protein M of SARS-CoV Urbani / Binding of serum 6 to linear peptides of protein X3 of SARS-CoV Urbani / Binding of serum 37 to linear peptides of protein X3 of SARS-CoV Urbani / Binding of serum 37 to looped/cyclic peptides of protein X3 of SARS-CoV Urbani / Binding of serum 6 to linear peptides of protein X4 of SARS-CoV Urbani / Binding of serum 37 to linear peptides of protein X4 of SARS-CoV Urbani / Binding of serum 37 to looped/cyclic peptides of protein X4 of SARS-CoV Urbani / Binding of serum 6 to linear peptides of protein X5 of SARS-CoV Urbani / Binding of serum 37 to linear peptides of protein X5 of SARS-CoV Urbani / Binding of serum 37 to looped/cyclic peptides of protein X5 of SARS-CoV Urbani / Binding of serum 6 to linear peptides of protein N of SARS-CoV Urbani / Binding of serum 37 to linear peptides of protein N of SARS-CoV Urbani / Binding of serum 6 to linear peptide (PEPSCAN-ELISA) / Binding of serum 1a to looped/cyclic peptides of protein N of SARS-CoV Urbani / Binding of serum 1b to looped/cyclic peptides of protein N of SARS-CoV Urbani / Binding of serum 2 to looped/cyclic peptides of protein N of SARS-CoV Urbani / Binding of serum 6 to looped/cyclic peptides of protein N of SARS-CoV Urbani / Binding of serum 37 to looped/cyclic peptides of protein N of SARS-CoV Urbani / Binding of serum 62 to looped/cyclic peptides of protein N of SARS-CoV Urbani / Binding of serum London to looped/cyclic peptides of protein N of SARS-CoV Urbani / Binding of serum SARS-green to looped/cyclic peptides of protein N of SARS-CoV Urbani: unit not given here
[4] = tested on: rabbit serum obtained by immunizing a rabbit with the SARS-CoV strain Frankfurt 1; type: binding; set-up: Binding of a rabbit serum to linear peptides / Binding of a rabbit serum to looped peptides / Rabbit serum linear peptides / Rabbit serum looped peptides / Binding of a rabbit serum to linear peptides of protein N of SARS-CoV Urbani (Rabbit serum linear peptides) / Binding of a rabbit serum to looped/cyclic peptides of protein N of SARS-CoV Urbani (Rabbit serum looped peptides): unit not given here

NTPKDHIGTRNPNNN
0.6: Binding of Control serum LUMC to looped peptides [1] | Binding of serum 37 to looped/cyclic peptides of protein N of SARS-CoV Urbani [3] | Binding of serum SARS-yellow to linear peptides of protein N of SARS-CoV Urbani [3]
0.3: Binding of serum 1a to linear peptides of protein N of SARS-CoV Urbani [3] | Binding of serum 1b to looped/cyclic peptides of protein N of SARS-CoV Urbani [3] | Binding of serum 2 to linear peptides of protein N of SARS-CoV Urbani [3] | Binding of serum 6 to looped/cyclic peptides of protein N of SARS-CoV Urbani [3] | Binding of serum 62 to looped/cyclic peptides of protein N of SARS-CoV Urbani [3]
0.8: Binding of Control serum Blood-bank to linear peptides [1] | Binding of serum 37 to linear peptides of protein N of SARS-CoV Urbani [3]
0.7: Binding of Control serum LUMC to linear peptides [1] | Binding of serum 62 to linear peptides of protein N of SARS-CoV Urbani [3]
0.4: Binding of serum 1a to looped/cyclic peptides of protein N of SARS-CoV Urbani [3] | Binding of serum 2 to looped/cyclic peptides of protein N of SARS-CoV Urbani [3] | Binding of serum London to linear peptides of protein N of SARS-CoV Urbani [3] | Binding of serum London to looped/cyclic peptides of protein N of SARS-CoV Urbani [3] | Binding of serum SARS-green to linear peptides of protein N of SARS-CoV Urbani [3] | Binding of serum SARS-green to looped/cyclic peptides of protein N of SARS-CoV Urbani [3] | Binding of serum SARS-yellow to looped/cyclic peptides of protein N of SARS-CoV Urbani [3]
0.1: Binding of antibody 03-018 to linear peptides of the N protein of SARS-CoV Urbani [2] | Binding of serum 1b to linear peptides of protein N of SARS-CoV Urbani [3] | Binding of a rabbit serum to linear peptides of protein N of SARS-CoV Urbani (Rabbit serum linear peptides) [4] | Binding of a rabbit serum to looped/cyclic peptides of protein N of SARS-CoV Urbani (Rabbit serum looped peptides) [4]
0.2: Binding of antibody 03-018 to looped/cyclic peptides of the N protein of SARS-CoV Urbani [2] | Binding of serum 6 to linear peptides of protein N of SARS-CoV Urbani [3]
0.5: Binding of Control Serum Blood-Bank to Looped peptides [1]

NVILLNKHIDAYKTF
0.1: Binding of antibody 03-018 to linear peptides of the N protein of SARS-CoV Urbani [2] | Binding of serum 1b to linear peptides of protein N of SARS-CoV Urbani [3] | Binding of serum 6 to linear peptides of protein N of SARS-CoV Urbani [3]
0.5: Binding of serum 1a to looped/cyclic peptides of protein N of SARS-CoV Urbani [3] | Binding of serum London to linear peptides of protein N of SARS-CoV Urbani [3]
0.2: Binding of antibody 03-018 to looped/cyclic peptides of the N protein of SARS-CoV Urbani [2] | Binding of serum 1a to linear peptides of protein N of SARS-CoV Urbani [3] | Binding of serum 2 to linear peptides of protein N of SARS-CoV Urbani [3] | Binding of a rabbit serum to linear peptides of protein N of SARS-CoV Urbani (Rabbit serum linear peptides) [4]
0.7: Control serum Blood-bank linear peptides [1] | Control serum LUMC linear peptides [1] | Control serum LUMC looped peptides [1] | Binding of serum 37 to linear peptides of protein N of SARS-CoV Urbani [3] | Binding of serum 37 to looped/cyclic peptides of protein N of SARS-CoV Urbani [3] | Binding of serum 62 to looped/cyclic peptides of protein N of SARS-CoV Urbani [3] | Binding of serum SARS-yellow to looped/cyclic peptides of protein N of SARS-CoV Urbani [3]
0.9: Binding of serum London to looped/cyclic peptides of protein N of SARS-CoV Urbani [3]
0.6: Binding of serum 62 to linear peptides of protein N of SARS-CoV Urbani [3] | Binding of serum SARS-yellow to linear peptides of protein N of SARS-CoV Urbani [3] | Binding of a rabbit serum to looped/cyclic peptides of protein N of SARS-CoV Urbani (Rabbit serum looped peptides) [4]
0.4: Binding of serum 2 to looped/cyclic peptides of protein N of SARS-CoV Urbani [3]
0.8: Control Serum Blood-Bank Looped peptides [1]
0.3: Binding of serum 1b to looped/cyclic peptides of protein N of SARS-CoV Urbani [3] | Binding of serum 6 to looped/cyclic peptides of protein N of SARS-CoV Urbani [3] | Binding of serum SARS-green to linear peptides of protein N of SARS-CoV Urbani [3] | Binding of serum SARS-green to looped/cyclic peptides of protein N of SARS-CoV Urbani [3]

NVTQAFGRRGPEQTQ
0.1: Binding of antibody 03-018 to linear peptides of the N protein of SARS-CoV Urbani [2] | Binding of serum 1b to linear peptide (PEPSCAN-ELISA) [3]
0.6: Binding of serum 37 to linear peptide (PEPSCAN-ELISA) [3] | Binding of serum SARS-yellow to linear peptide (PEPSCAN-ELISA) [3]
0.3: Binding of serum 1a to looped/cyclic peptides of protein N of SARS-CoV Urbani [3] | Binding of serum 2 to looped/cyclic peptides of protein N of SARS-CoV Urbani [3] | Binding of serum SARS-green to looped/cyclic peptides of protein N of SARS-CoV Urbani [3] | Binding of serum SARS-yellow to looped/cyclic peptides of protein N of SARS-CoV Urbani [3]
0.5: Binding of Control Serum Blood-Bank to Looped peptides [1] | Binding of Control serum LUMC to looped peptides [1] | Binding of serum 37 to looped/cyclic peptides of protein N of SARS-CoV Urbani [3] | Binding of serum London to linear peptide (PEPSCAN-ELISA) [3] | Binding of serum SARS-green to linear peptide (PEPSCAN-ELISA) [3]
0.2: Binding of antibody 03-018 to looped/cyclic peptides of the N protein of SARS-CoV Urbani [2] | Binding of serum 1a to linear peptide (PEPSCAN-ELISA) [3] | Binding of serum 1b to looped/cyclic peptides of protein N of SARS-CoV Urbani [3] | Binding of serum 2 to linear peptide (PEPSCAN-ELISA) [3] | Binding of serum 6 to linear peptide (PEPSCAN-ELISA) [3] | Binding of serum 6 to looped/cyclic peptides of protein N of SARS-CoV Urbani [3]
0.7: Binding of Control serum Blood-bank to linear peptides [1] | Binding of Control serum LUMC to linear peptides [1] | Binding of serum 62 to linear peptide (PEPSCAN-ELISA) [3]
0.4: Binding of serum 62 to looped/cyclic peptides of protein N of SARS-CoV Urbani [3] | Binding of serum London to looped/cyclic peptides of protein N of SARS-CoV Urbani [3]
recognized: Recognition of the peptide by the rabbit serum [4]

PINTNSGPDDQIGYY
0.6: Binding of Control serum LUMC to looped peptides [1] | Binding of serum SARS-yellow to linear peptides of protein N of SARS-CoV Urbani [3]
0.5: Binding of Control Serum Blood-Bank to Looped peptides [1] | Binding of serum 62 to looped/cyclic peptides of protein N of SARS-CoV Urbani [3] | Binding of serum SARS-yellow to looped/cyclic peptides of protein N of SARS-CoV Urbani [3]
0.2: Binding of antibody 03-018 to looped/cyclic peptides of the N protein of SARS-CoV Urbani [2] | Binding of serum 1a to linear peptides of protein N of SARS-CoV Urbani [3] | Binding of serum 1b to linear peptides of protein N of SARS-CoV Urbani [3] | Binding of serum 2 to linear peptides of protein N of SARS-CoV Urbani [3] | Binding of serum 6 to linear peptides of protein N of SARS-CoV Urbani [3] | Binding of serum 6 to looped/cyclic peptides of protein N of SARS-CoV Urbani [3]
0.7: Binding of Control serum Blood-bank to linear peptides [1] | Binding of Control serum LUMC to linear peptides [1] | Binding of serum 37 to looped/cyclic peptides of protein N of SARS-CoV Urbani [3] | Binding of serum 62 to linear peptides of protein N of SARS-CoV Urbani [3]
0.3: Binding of serum SARS-green to linear peptides of protein N of SARS-CoV Urbani [3]
0.1: Binding of antibody 03-018 to linear peptides of the N protein of SARS-CoV Urbani [2] | Binding of a rabbit serum to linear peptides of protein N of SARS-CoV Urbani (Rabbit serum linear peptides) [4]
0.4: Binding of serum 1a to looped/cyclic peptides of protein N of SARS-CoV Urbani [3] | Binding of serum 1b to looped/cyclic peptides of protein N of SARS-CoV Urbani [3] | Binding of serum 2 to looped/cyclic peptides of protein N of SARS-CoV Urbani [3] | Binding of serum London to linear peptides of protein N of SARS-CoV Urbani [3] | Binding of serum London to looped/cyclic peptides of protein N of SARS-CoV Urbani [3] | Binding of a rabbit serum to looped/cyclic peptides of protein N of SARS-CoV Urbani (Rabbit serum looped peptides) [4]
0.8: Binding of serum SARS-green to looped/cyclic peptides of protein N of SARS-CoV Urbani [3]
0.9: Binding of serum 37 to linear peptides of protein N of SARS-CoV Urbani [3]
